Reference: patent publication US20260265329A1, “POLYPEPTIDE AND DERIVATIVE THEREOF, COMPOSITION, AND USE THEREOF” (HANGZHOU SCIWIND BIOSCIENCES CO., LTD., priority 2023, published 2026)
Starred links: 1 amine or outer side, 2 acyl side, 3 side chain; linkers in the order of their positions; H or OH if unused. Residues, ends and D or L forms follow the SMILES beside them. No end group written: not given here. *: point of attachment. C20 diacid = O=C(O)CCCCCCCCCCCCCCCCCCC(=O)*; γGlu = O=C(O)[C@H](CCC(=O)[*:2])N[*:1]

Experiments:
[1] = Heat accelerated stability assay, 40° C., detection on 7 d and 28 d; assay type: physicochemical
Summary of the method: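 Derivatives at 1 mg/mL in water with sodium dihydrogen phosphate (1.42 mg/mL), pH about 7.4, sterile-filtered, stored sealed at 40° C. On days 7 and 28, appearance noted; after centrifugation, supernatant concentration and purity measured by reversed-phase HPLC at 214 nm (water/0.05% TFA–acetonitrile gradient).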

[2] = target: T1, human amylin receptors (Homo sapiens, UniProt O60896+P30988); assay: Luciferase assay in stably transfected amylin receptor/CRE-luc CHO cell line; assay type: cell-based
T1 construct: host or cells: CHO-K1/Ga15/AMY3 cells, further stably transfected with a CRE-luciferase plasmid
T1 sequence (P30988 25-474): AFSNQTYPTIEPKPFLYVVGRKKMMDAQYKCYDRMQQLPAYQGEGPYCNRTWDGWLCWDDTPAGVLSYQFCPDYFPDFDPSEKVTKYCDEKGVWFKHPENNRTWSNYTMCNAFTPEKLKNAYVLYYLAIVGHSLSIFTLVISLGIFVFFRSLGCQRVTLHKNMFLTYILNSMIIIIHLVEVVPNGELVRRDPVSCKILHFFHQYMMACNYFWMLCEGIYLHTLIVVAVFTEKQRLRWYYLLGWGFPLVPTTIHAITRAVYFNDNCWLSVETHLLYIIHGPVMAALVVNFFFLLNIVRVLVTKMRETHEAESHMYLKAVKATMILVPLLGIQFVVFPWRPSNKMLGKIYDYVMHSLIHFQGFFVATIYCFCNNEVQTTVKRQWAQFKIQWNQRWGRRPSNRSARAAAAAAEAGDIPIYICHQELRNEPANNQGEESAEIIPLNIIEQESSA
T1 sequence (O60896 24-148 partner): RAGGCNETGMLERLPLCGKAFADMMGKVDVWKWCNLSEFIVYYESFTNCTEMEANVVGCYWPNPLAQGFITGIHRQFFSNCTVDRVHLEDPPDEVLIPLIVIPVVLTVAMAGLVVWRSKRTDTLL

[3] = Animal study in SD rats (Example 4), weight change and food consumption; assay type: in vivo; conditions: 30 nmol/kg subcutaneous (FIGS. 2A, 2B)
Experimental: SPF male SD rats (7-8 weeks, 200-250 g) were employed in this study after health inspection and quarantine. The experimental animals were exposed to a room temperature of 20° C.-23° C. and a relative humidity of 40%-50%, and were provided with Co60 mouse reproduction feed 1035 and purified water supplied with water feeding bottles for free intake throughout the health inspection and quarantine and the study. Based on their mean body weight, 5 rats were assigned to each testing group for the derivatives. The rats were subcutaneously administered the derivatives at a dose of 30 nmol/kg or a vehicle (PBS pH7.4), and the dosing timepoint was recorded for each group. After dosing, the rats were put back into cages where they lived and could have access to food and water. Food consumption and weight change of the rats were recorded online or manually every 24 hours.

[4] = in vivo, background statement; cited from earlier work
[5] = cited from earlier work

Purity from the reversed phase chromatography-214 nm, 0 d ([1]; 1 mg/mL, pH about 7.4, 40° C., 0 d)	Purity from the reversed phase chromatography-214 nm, 7 d ([1]; 1 mg/mL, pH about 7.4, 40° C., 7 d)	Purity from the reversed phase chromatography-214 nm, 28 d ([1]; 1 mg/mL, pH about 7.4, 40° C., 28 d)	Change of spectra of reversed phase chromatography after heat acceleration ([1]; after 7 days or even 1 month, 40° C. (FIG. 1))	Change (7 d − 0 d) ([1]; purity on 7 d − purity on 0 d, 40° C., pH about 7.4)	Change (28 d − 0 d) ([1]; purity on 28 d − purity on 0 d, 40° C., pH about 7.4)	Relative activity ([2]; EC50 ratio of Cagrilintide to the compound, Cagrilintide 100%)	EC50 ([2]; amylin receptor/CRE-luc CHO cells, 24 hours incubation, luminescence)	Molecule	Activity on weight loss and food intake compared with Cagrilintide [3]	half-life [4]	fibrillation ([5]; background statement)	chemical stability ([5]; pH 7, background statement)
91.52	90.98	92.33	almost no change	−0.54	0.81	62%	0.042 nM	CC[C@H](C)[C@H](NC(=O)[C@H](CC(=O)O)NC(=O)[C@H](CCCNC(=N)N)NC(=O)[C@H](CC(=O)O)NC(=O)[C@H](CCCNC(=N)N)NC(=O)[C@H](CC(=O)O)NC(=O)[C@@H](NC(=O)[C@H](Cc1ccccc1)NC(=O)[C@H](Cc1c[nH]cn1)NC(=O)[C@H](CCCNC(=N)N)NC(=O)[C@H](CC(C)C)NC(=O)[C@H](Cc1ccccc1)NC(=O)[C@H](CC(=O)O)NC(=O)[C@H](C)NC(=O)[C@H](CC(C)C)NC(=O)[C@H](CCCNC(=N)N)NC(=O)[C@H](CCC(N)=O)NC(=O)[C@@H](NC(=O)[C@H](C)NC(=O)[C@H](C)NC(=O)[C@@H](NC(=O)[C@H](CO)NC(=O)[C@H](CC(C)C)NC(=O)[C@H](CCC(N)=O)NC(=O)[C@H](CO)NC(=O)[C@H](C)NC(=O)CC[C@H](NC(=O)CCCCCCCCCCCCCCCCCCC(=O)O)C(=O)O)[C@@H](C)O)[C@@H](C)O)[C@@H](C)O)C(=O)N[C@@H](CC(C)C)C(=O)N1CCC[C@H]1C(=O)N1CCC[C@H]1C(=O)N[C@H](C(=O)N[C@@H](CC(N)=O)C(=O)N[C@H](C(=O)NCC(=O)N[C@@H](CO)C(=O)N[C@@H](CC(N)=O)C(=O)N[C@H](C(=O)N1CCC[C@H]1C(N)=O)[C@@H](C)O)C(C)C)[C@@H](C)O [M6] ({C20 diacid-γGlu}-ASQLSTAATQRLADFLRHFTDRDRDILPPTNVGSNTP-NH2)	the most active one with an activity notably higher than Cagrilintide			
								Amylin (KCNTATCATQRLANFLVHSSNNFGAILSSTNVGSNTY; not fully specified (C-terminus, bridges); cysteine pairing not given here; UniProt P10997 34-70, looked up) [polypeptide hormone consisting of 37 amino acids, member of the calcitonin protein family]		short half-life in vivo	strong tendency towards fibrillation	chemical instability at pH 7
